Key:
[1] = system: isolated human bronchial strips; test: inhibition of carbachol-induced contraction of isolated human bronchial strips; type: cell-based; conditions: for offset half time: 10 nM; for onset half time to 50% inhibition of carbachol-induced contraction: single concentration of 10 nM
[2] = system: healthy male ipratropium-responsive subjects; test: clinical trial, single escalating inhaled doses, airway conductance (sGaw); type: in vivo, human; conditions: for increase in airway conductance (sGaw) versus placebo, significance: all doses (bromide compound 20-350 mcg via Diskus; tiotropium 18 mcg), healthy subjects
Text: In another clinical trial using a binary mixture of the bromide compound and lactose monohydrate, the safety, tolerability, pharmacodynamics and pharmacokinetics of single escalating doses of the bromide compound (20, 60, 100, 250 and 350 mcg via the Diskus), and tiotropium (18 mcg) in 20 healthy male ipratropium-responsive subjects were compared.

[3] = stability of formulation with magnesium stearate; type: physicochemical; conditions: addition of magnesium stearate in the formulation, under conditions tested
[4] = system: muscarinic acetylcholine (Ach) receptor; test: off-rate at the muscarinic acetylcholine receptor; type: binding
Text: This is known to be predictive of a long duration of action. Therefore, while a twice daily dosing at 10-100 mcg/dose may be used, if the dose is increased, such as to 100-200 mcg/dose, once daily dosing may be a suitable alternative.

[5] = system: M1 and M3 receptors over the M2 receptors; test: muscarinic receptor subtype selectivity and antagonist character; type: binding
[6] = human clinical trial, bronchodilation and onset of action; type: in vivo
[7] = system: male and female ipratropium-responsive COPD subjects; test: clinical study, single inhaled doses, FEV1; type: in vivo, human
Experimental: A third clinical study assessed the safety, tolerability, pharmacodynamics and pharmacokinetics of single inhaled doses of the bromide compound (20, 50 and 100 mcg via Diskus), and tiotropium (18 mcg) in 31 male and female ipratropium-responsive COPD subjects.
Mean FEV1 values peaked at 2 hours and decreased consistently to 24 hours for each dose.

| stabilization of the product on stability [3] | off-rate at the muscarinic acetylcholine (Ach) receptor [4] | reversibility of antagonism [5] | selectivity for the M1 and M3 receptors over the M2 receptors [5] [fold] | Compound | offset half time [1] [min] | onset half time to 50% inhibition of carbachol-induced contraction [1] [min] | increase in airway conductance (sGaw) versus placebo, significance [2] | increase in sGaw compared with placebo ([2]; 20 mcg dose, after 24 hours) [%] | muscarinic receptor antagonist character [5] | onset of action in human clinical trial ([6]; compared with tiotropium) | bronchodilator efficacy in human clinical trial ([6]; human, in vivo) | FEV1 adjusted mean difference versus placebo ([7]; 20 mcg, 12 hours) [mL] | FEV1 adjusted mean difference versus placebo ([7]; 20 mcg, 24 hours) [mL] | FEV1 adjusted mean difference versus placebo ([7]; 50 mcg, 12 hours) [mL] | FEV1 adjusted mean difference versus placebo ([7]; 50 mcg, 24 hours) [mL] | FEV1 adjusted mean difference versus placebo ([7]; 100 mcg, 12 hours) [mL] | FEV1 adjusted mean difference versus placebo ([7]; 100 mcg, 24 hours) | Mean FEV1 versus placebo, significance ([7]; all doses (20, 50, 100 mcg), each time point over 24 hours, COPD subjects) | time of peak mean FEV1 ([7]; each dose (20, 50, 100 mcg)) [h] |
| --- | --- | --- | --- | --- | --- | --- | --- | --- | --- | --- | --- | --- | --- | --- | --- | --- | --- | --- | --- |
|  |  |  |  | C[N+]1(C)[C@@H]2C[C@@H](OC(=O)C(O)(c3cccs3)c3cccs3)C[C@H]1[C@@H]1O[C@@H]12 [tiotropium, tiotropium bromide, reference compound] | 314 | 10 | statistically significantly greater increases |  |  |  |  |  |  |  |  |  |  |  |  |
| some improvement in stabilization |  |  |  | C[N+]1(C)C2CCC1CC(CC(C#N)(c1ccccc1)c1ccccc1)C2 (stereo not drawn) [Compound (I), (Endo)-3-(2-cyano-2,2-diphenyl-ethyl)-8,8-dimethyl-8-azonia-bicyclo[3.2.1]octane] |  |  |  |  |  |  |  |  |  |  |  |  |  |  |  |
|  | slow | partially reversible antagonist | 10 | C[N+]1(C)[C@@H]2CC[C@H]1C[C@@H](CC(C#N)(c1ccccc1)c1ccccc1)C2.[Br-] [bromide compound, (Endo)-3-(2-cyano-2,2-diphenyl-ethyl)-8,8-dimethyl-8-azonia-bicyclo[3.2.1]octane bromide] | 195 | 25 | statistically significantly greater increases | 16 | high-affinity, pan-active, competitive and reversible | faster onset of action than tiotropium | effective long-acting anti-muscarinic bronchodilator | 241 | 135 | 288 | 136 | 305 | above 200 mL | statistically significantly higher than placebo | 2 |
